In article PMC12390126, “Human Skin Permeation of Ethoxy- and Propoxypropanol Commonly Found in Water-Based Products” (Toxics, 2025):

Tests used:
[1] = In vitro static diffusion cell skin permeation (influence of water); format: in vitro ADME, human; conditions: static cells; 0, 25, 50 or 75% of water
From the text: Human abdominal full thickness skin was obtained as surgical waste from the Lausanne University Hospital (CHUV) and the Department of Musculoskeletal Medicine (DAL) Biobank, Switzerland, according to the Swiss ethics in the canton Vaud (CER-VD: Commission cantonal d’éthique de la recherche sur l’être humain, ethical protocol 264/12). The surgeon obtained written consent from the patients before the start of the operation. The collected skin was anonymized, and only sex and age were provided for this study. Human skin was obtained directly after the surgery and immediately dermatomed to a thickness of 800 µm (Acculan®II, B. Braun/Aesculap, Sempach, Switzerland) to account for any potential storage effects on its in vitro mass balance. The experiments were run with triplicate skin samples (n = 3) from three different donors giving a total of nine samples for each experiment. The skin samples used for this study were stored at −20 °C for up to four years. […]
The concentrations of parent compounds were quantified by gas-chromatography tandem mass spectrometry (GC-MS/MS). […] The limits of detections (LODs) for PGEE and PGPE were 0.045 µg/mL and 0.035 µg/mL, respectively, and the limits of quantifications (LOQs) for PGEE and for PGPE were 0.135 µg/mL and 0.105 µg/mL, respectively. […]

[2] = Mass balance of flow-through diffusion cell experiments; format: in vitro ADME, human; conditions: for Receptor Chamber (percentage of applied dose): remaining fluid at end
Protocol: A mass balance was performed only for flow-through diffusion cell experiments following the OECD guidelines, where the mean recovery should be 100 ± 10% [20]. The following components of the test system were analyzed to determine recovery: donor chamber, skin, and receptor chamber. The donor chamber was rinsed three times with 500 µL of water (donor chamber samples), the skin disk was sonicated three times for five minutes in water (skin samples), and the remaining fluid receptor chamber was collected (receptor chamber samples). If liquid was present in the donor chamber at the end of the experiment, it was also collected and analyzed with the donor chamber samples. PGE concentrations were quantified in all mass balance samples by GC-MS/MS, i.e., donor chamber rinsing water, water collected after sonication of skin, and remaining fluid receptor chamber. Mean concentrations of PGEE and PGPE were calculated for all cells in both conditions (neat or aqueous), and the results were reported as the percentage of the applied dose.

[3] = parameters: method as in earlier work; conditions: cited from earlier work

Structure (SMILES)	mean cumulative amount in receptor fluid after 24 h: trend with percentage of water [1]	Donor Chamber (percentage of applied dose) ([2]; 50:50 (aq)) [%]	Receptor Chamber over 24 h (sum of receptor fluid collected at different time points) ([2]; 50:50 (aq)) [%]	Recovery (percentage of applied dose) ([2]; 50:50 (aq)) [%]	Receptor Chamber (percentage of applied dose) ([2]; 50:50 (aq)) [%]	Donor Chamber (percentage of applied dose) ([2]; neat) [%]	Receptor Chamber over 24 h (sum of receptor fluid collected at different time points) ([2]; neat) [%]	Recovery (percentage of applied dose) ([2]; neat) [%]	Receptor Chamber (percentage of applied dose) ([2]; neat) [%]	LogP [3]
CCCOCC(C)O (centres unmarked) [PGPE, propoxypropanol]	reached a maximum when diluted with 25 % water (75:25), followed by a decrease at higher water concentrations	0.05	24.1	24.6	0.4	0.18	9.4	9.9	0.3	0.7
CCOCC(C)O (centres unmarked) [PGEE]	increased with the percentage of water in the applied mixture	0.02	44.0	45.1	1.1	0.0003	16.8	17.3	0.5	0.2
